Here are results for 15 sequences from US10801023B2, “Methods of identifying biologically active random peptides in plants and libraries of plants expressing candidate biologically active random peptides” (University of Florida Research Foundation, Inc., priority 2015, dated 2020).

Experiment [1] has as its system Arabidopsis thaliana plants. As to the kind of experiment: Screening of library of transformed plants expressing candidate BARPs for new phenotypes. The settings on record: for phenotype: transgenic Arabidopsis thaliana expressing the BARP, scored from emergence to senescence; for new phenotype associated with the BARP: plant of the library from which the BARP sequence was isolated. Format: in vivo. The source says: In the present example, the methods of the present disclosure were used to generate a library of test nucleic acids encoding a plurality of candidate BARPs, each having a core 6 amino acid random peptide sequence flanked by two cysteine residues. The sequences were also flanked by start and stop codons and Gateway® sequences, such as illustrated in FIG. 1. PCR was used with primers corresponding to the known Gateway flanking sequences to generate the test nucleic acid library. The oligonucleotides were then cloned into bacterial vectors including genes for kanamycin resistance to create a recombination vector library. The vectors were then moved to Agrobacterium tumefaciens strain […] and used to transform Arabidopsis thaliana plants. Seeds were collected from the transformed plants and used to grow new plants. These plants were observed from seedling through the plant lifecycle and observed for new phenotypes. Several new phenotypes emerged, DNA was extracted from the plants displaying new phenotypes, and the sequence of the candidate BARP from the plants was determined. The procedures and results are described in detail below.
The test nucleic acid sequences were synthesized using conserved initiator and terminator sequences flanking 18 random nucleotides, which provides a peptide that is ten amino acids long, with six of the core amino acids randomized, following a Met-Ala-Cys and ending with a Cys-term. This template is illustrated in FIG. 1. In the present example, the corresponding nucleic acid sequence was […] (SEQ ID NO: 5; nucleotides 14-46 of SEQ ID NO: 1). The cysteine residues in this case provide potential for formation of disulfide bonds that may impart additional structure to the adjacent amino acid loop. Although in this example 18 random nucleotides (identified as “N” in SEQ ID NOs: 1 and 5) were used, any number may be used, as long as it is a multiple of three.
To construct the library of random-core BARP sequences, the above DNA sequence was synthesized as an oligonucleotide sequence, along with flanking sequences corresponding to the Gateway® recombination sequences. The middle portion of the sequence, represented by “N” in FIG. 1, were randomized nucleotides. Known synthesis techniques were used to build the sequences, resulting in a library of PCR products containing test nucleic acid sequences (start codon, spacer codon, cysteine codon, 18 random nucleotides encoding a core candidate BARP sequence, second cysteine codon, and stop codon) flanked by Gateway recombination sequences. Although Gateway® sequences were used in the present examples, other recombination cloning primer sequences could be used or specifically designed.
The library of PCR products containing random test sequences was amplified using PCR based on flanking primers containing Gateway recombination sequences. These reactions produced a population of PCR products each containing the core peptide test sequence flanked by Gateway recombination sequences. These PCR products were introduced to the vector pDONR222 using Gateway recombination, and then transformed into E. coli genotype DH5α. The transformation vector also included the NPTII gene for kanamycin resistance. The E. coli cells were plated on kanamycin plates at low density to obtain single-colony separation. The single colonies each contained a separate plasmid bearing a random peptide sequence.
The colonies were recovered from plates in liquid medium, and the plasmids were isolated. The isolated plasmids represented a library of many independent, random sequences (encoding candidate BARPs) flanked by ‘start’ and ‘stop’ sequences. […]

Experiment [2] concerns Arabidopsis thaliana plants. Nature of the experiment: Independent replication of peptide-induced phenotypes in independent transformant lines. The class given is in vivo. The settings on record: BARP sequence re-introduced into Arabidopsis thaliana. How it is done:
A number of first-transformed generation plants were prepared and phenotypes were observed using the methods described in Example 1, above. In this example some 12-amino-acid-long candidate BARPs were also synthesized and tested. The procedures were the same as for the 6-aa BARPs described in Example 1. These phenotypes were also observed to be stable and inherited in subsequent generations. To verify that the effects observed are due to the expressed peptide and not to other less-likely positional/insertional causes, in this Example, a substantial number of the of the candidate 6 and 12 amino-acid-long BARPs were sequenced and separately transformed into independent plants. […] One microliter was used in a PCR reaction under standard conditions, and using primers corresponding to the attachment (recombinational cloning sequences) of the Gateway vector, the corresponding BARP sequences was amplified. This sequences were then recombined into the pDONR222 vector and then re-ligated into the binary pKWDG2 over-expression vector as described above. This sequence was then re-introduced into Arabidopsis thaliana plants using the floral dipping strategy and selection as noted above. The seedlings were then analyzed for the phenotype as defined by the original transformant. Recapitulation of the phenotype in multiple, independent transformation events provided high evidence of a specific physiological effect of the peptide.

A further experiment has as its system Arabidopsis plants. Nature of the experiment: Plant growth and phenotyping of PEP6 / PEP12 transgenic plants. The class given is in vivo, Arabidopsis thaliana. The following applies: transgenic plant in soil; normal-sized plants 25 mm to 30 mm. The source says:
Two libraries encoding six- and twelve-random amino acid cyclized peptides (denoted PEP6 and PEP12, respectively) were constructed in binary vectors (as illustrated in FIG. 9) using a Gateway cloning strategy and transformed into Arabidopsis. More than 1,500 transgenic plants with the PEP6 T-DNA inserts were isolated and more than 600 transgenic plants were isolated carrying the PEP12 insert, representing a survival ratio of 1.8% and 1.2% respectively under kanamycin selection. To ensure library representation in the population, DNA was prepared from at least fifty transgenic plants, including ten that had small rosette diameter (5 mm to 10 mm) (e.g., those having BARP sequences SEQ ID NO: 14, 16, 6, 19, 21, 23, 26, 28, 30, and 32) compared to normal-sized plants (25 mm to 30 mm; see Table 2). The nucleotide sequences of all amplified random peptide open reading frames (rpORFs) were different, indicating representation of library diversity was maintained throughout the cloning and transformation process. Several phenotypes were visually apparent. […] Some plants showing multiple growth defects were recorded in each phenotype. Bolting plants with multiple inflorescences were transformed with the PEP6 or PEP12 destination library through the floral dipping method (Clough and Bent, 1998, incorporated herein by reference). For selection, seeds were surface sterilized by 70% ethanol for 5 min and 10% bleach for 20 min. Surface-sterilized seeds were plated on ½× MS basal medium with 0.5% Phyto Agar (cat. # M10200 and # A20300, Research Products International) and 50 μg/ml kanamycin for selection. Transgenic seedlings were identified by GFP expression or resistance to kanamycin. Transformed seedlings were grown to the 3-5 true leaf stage on plates and transferred to soil. DNA was extracted from each seedling (Edwards et al., 1991 incorporated herein by reference) for inserted nucleotide sequence identification. An approximately 500 bp DNA fragment containing the random peptide ORF and part of pK7WG2D vector sequence was amplified using primers PEP-F and PEP-R (SEQ ID NOs: 35 and 36, respectively) listed in Table 4 and sequenced. Arabidopsis plants were grown in soil at 20° C. under 16 hour light/8 hour dark conditions. The characterization of phenotypic variations was based on the comparison among seedlings grown in the same pot or flat.

The test system of experiment [3] is Arabidopsis thaliana seedlings. As to the kind of experiment: Salt tolerance screen and root elongation on salt media. Format: in vivo. How it is done:
Also, to test for phenotypes not readily observable under normal conditions, seeds were collected from all plants in sets of nine and stored together, then planted and screened in various stress conditions to identify additional phenotypes. For example, seeds were planted on plant-growth media containing […] to screen for seedlings showing resistance to salt. Populations of BARP containing plants have also been grown in soil under water-deficit stress, leading to identification of peptides that confer tolerance to drought stress up on further evaluation.
Also, to test for phenotypes not readily observable under normal conditions, seeds were collected from all plants, stored, and later planted and screened in various stress conditions to identify additional phenotypes. […] Two lines thrived on the high-salt media, one of them resulting in a conspicuous root phenotype. […] The left-hand bars in the graph in FIG. 7A represent wild-type seedlings, and the right-hand bars show the effect of the peptide. Root elongation was measured four days after germination (Day 0) and then again at four-day intervals. Error bars represent standard error of the mean.

The subject of the next experiment is Arabidopsis seedlings. Nature of the experiment: Inhibition of hypocotyl elongation under different light conditions. The class given is in vivo, Arabidopsis thaliana. The protocol: Seeds were surface sterilized using a brief treatment of 70% ethanol and then set to dry on sterile paper discs in a laminar flow hood. The seeds were placed on 1 mM KCl plus 1 mM CaCl2 media containing 1% Phyto Agar on 100 mm square plates and stratified for 48 h. The vertical plates were transferred to various light conditions of varying spectral quality and fluence rates (as described in FIGS. 12A-12B), or complete darkness. […] Plants grown in darkness were placed under one of the narrow bandwidth treatments wrapped in two layers of aluminum foil. After 96 h the plates were scanned and the seedlings were measured using ImageJ software, and the length of the seedlings was reported as a fraction of dark-grown seedling length.

As for “MACKQAXQRC (chemically synthesized peptide sequence of BARP CBF6AA-85 associated with large, flat leaves and small petioles) [BARP; “X” represents a stop codon]”, the phenotype entry in experiment [1] is given as “tiny, curly leaves”. For the same sequence, the “phenotype in independent transformant lines” value in experiment [2] is “large, flat leaves with small petioles”.
With “MACWTSSVLC (chemically synthesized peptide sequence of BARP CBF6AA-110 associated with large, flat leaves and small petioles)”, the phenotype entry in experiment [1] is “tiny”. For the same sequence, in experiment [2], the “phenotype in independent transformant lines” value is recorded as “large, flat leaves with small petioles”.
In the experiment with Arabidopsis plants, “MACPNACFSC (chemically synthesized peptide sequence of BARP PEP6-33)” returned a rosette size of 9 mm.
On the same count and under the same terms, the figure for “MACQQMLSGC (chemically synthesized peptide sequence of BARP PEP6-37)” is 8 mm; for “MACGGGCSAC (chemically synthesized peptide sequence of BARP PEP6-46) [PEPB-46]” it is 10 mm.
For “MACDFLADLC (chemically synthesized peptide sequence of BARP associated with bushy seedling phenotype) [SEQ ID NO: 3]”, in experiment [1], the “new phenotype associated with the BARP” value is ““bushy” seedling with small and upright leaves”.
In the experiment with Arabidopsis plants, “MACNCSSDGC (chemically synthesized peptide sequence of BARP PEP6-27)” returned a rosette size of 8 mm.
Consider “MACPASVSVC (chemically synthesized peptide sequence of BARP 6AA-33.1 associated with salt resistance and elongated root growth) [PEP6-32, BARP associated with salt resistance, root growth and red light insensitivity]”, for which, in the experiment with Arabidopsis plants, the rosette size was found to be 27 mm. In addition, the salt tolerance entry in experiment [3] (plant-growth media containing 100 μM NaCl) is on record as “salt tolerance”. Also, in experiment [3] (seedlings on vertical agar plates under light, versus wild-type), the root elongation entry is listed as “increase in root elongation”. The “hypocotyl length versus controls” value is reported as “slightly longer hypocotyls” in the experiment with Arabidopsis seedlings (0.5 μmol·m^−2·s^−1 blue light); “differences were not observed” with Arabidopsis seedlings (blue light, fluence rates of 2 and 10 μmol·m^−2·s^−1); “No significant differences” in the experiment with Arabidopsis seedlings (far red light conditions). Besides, in the experiment on Arabidopsis seedlings (constant red light, fluence rates of 1, 10 and 50 μmol·m^−2·s^−1, four lines), the “hypocotyl length versus wild-type controls” value is “longer hypocotyls than wild-type controls”. Moreover, the “seedling growth versus wild-type” value in the experiment on Arabidopsis seedlings (darkness) is reported as “comparable to wild-type seedlings”. In addition, the “hypocotyl length versus other seedlings” value in the experiment on Arabidopsis seedlings (white light) is reported as “slightly longer hypocotyls”.
Consider “MACSDVSVIC (chemically synthesized peptide sequence of BARP PEP6-38)”, for which the rosette size in the experiment with Arabidopsis plants was 8 mm.
For “MACGKGSGLC (chemically synthesized peptide sequence of BARP associated with purple pigment accumulation in seed pods) [SEQ ID NO: 2]”, the “new phenotype associated with the BARP” value in experiment [1] is recorded as “hyperaccumulation of purple pigments in seed pods”.
Same read-out and setting: the entry for “MACSAHCSDC (chemically synthesized peptide sequence of BARP associated with abberrant seedling characteristics) [SEQ ID NO: 4, BARP associated with strange seedling characteristics]” is “aberrant seedling characteristics”.
“MACQELTMWC (chemically synthesized peptide sequence of BARP PEP6-30)” yielded a rosette size in the experiment on Arabidopsis plants of 10 mm.
Consider “MACWMSRMEC (chemically synthesized peptide sequence of BARP PEP6-12)”, for which the rosette size in the experiment with Arabidopsis plants is on record as 5 mm.
Take “MGCVCIEPYQRLRAKC (chemically synthesized peptide sequence of BARP 12AA-97 associated with arrested plant growth)”: the phenotype result in experiment [1] was “died late”. Besides, the “phenotype in independent transformant lines” value in experiment [2] was “arrested plant growth”.
Regarding “MACQLMWREC (chemically synthesized peptide sequence of BARP PEP6-28)”, the rosette size in the experiment on Arabidopsis plants is on record as 8 mm.
